Publication PMC11172460 (International Journal of Molecular Sciences, 2024)

Legend:
[1] = Hydrolysis kinetics in rat brain homogenates; type: in vitro ADME; settings: within 3 h, 37 °C, 30 µM
Experimental: Brains were obtained from male Wistar rats, which were sacrificed by decapitation after a slight isoflurane anesthesia. The brains were immediately separated and homogenized in 5 volumes (w/v) of Tris HCl (50 mM, pH 7.4, 4 °C) using an ultra-Turrax (IKA Werke GmbH & Co. KG, Staufen, Germany) with 3 × 15 s bursts. After centrifugation of the homogenate (3000× g for 15 min at 4 °C), the supernatant was isolated and stored at −80 °C until its use for in vitro kinetic studies. The Lowry procedure was adopted to quantify the total protein concentration in the brain homogenate, resulting in 7.4 ± 0.4 μg protein/μL.
Kinetic analysis of Fer-Ger was performed by its incubation at 37 °C in 3 mL of rat liver or brain homogenates at 30 µM (9.92 µg/mL) final concentration. At defined time intervals, 100 μL of homogenates were withdrawn and immediately treated by quenching them in EtOH (250 µL), then an internal standard (100 μM carbazole dissolved in EtOH, 50 µL) was added. […]
(§1) The Fer-Ger degradation in whole blood or homogenates was analyzed as exponential decay plots of its concentrations versus incubation time, and the related half-life values were obtained from the linear regression of the corresponding semi-logarithmic plots. The quality of the fits was evaluated by considering the correlation coefficients (r) and p values. […]
(§2) Fer-Ger and its hydrolysis product, Ger, were quantified by HPLC. […]

[2] = Hydrolysis in rat liver homogenates of free or SLM-encapsulated Fer-Ger; type: in vitro ADME
Experimental: Since SLMs were suspended in the medium, it was difficult to withdraw several homogeneous samples, and consequently, stability was assessed by a single sampling after 10 min of incubation. Dichloromethane (1 mL) was added, and 250 μL was withdrawn from the samples and quenched in 500 μL of ice-cold ethanol added with 100 μL of internal standard (100 μM carbazole dissolved in ethanol). After 5 min of centrifugation at 16,000× g, 600 μL aliquots were reduced to dryness under a nitrogen stream. […] The same procedure was adopted for free Fer-Ger by adding appropriate amounts of stock solution in DMSO to a volume of 3 mL of rat liver homogenates in order to obtain the final concentration of 30 µM (9.92 µg/mL). In this case, the Fer-Ger hydrolysis was analyzed both in the absence or in the presence of unloaded Ts SLMs or Ts-glu SLMs, whose amounts were equivalent to those of their parent-loaded FG Ts SLMs or FG Ts-glu SLMs, respectively. All the values obtained are the means of four independent experiments.

[3] = Hydrolysis kinetics in human whole blood; type: in vitro ADME
Experimental: Kinetic analysis of Fer-Ger was performed by incubating the compound at 37 °C in heparinized whole blood obtained from healthy human volunteers or from male Wistar rats weighing 200–250 g. In particular, appropriate amounts of stock solution in DMSO were added to a volume of 3 mL of whole blood in order to obtain the final concentration of 30 µM (9.92 µg/mL). Samples (100 μL) were withdrawn at defined time intervals and immediately treated. Specifically, they were firstly added to ice-cold water (500 µL); then, sulfosalicylic acid (10%, 50 µL) and the internal standard (100 μM carbazole dissolved in a mixture of MeOH and H2O 50:50 v/v, 50 µL) were added; finally, 1 mL of H2O-saturated ethyl acetate was used twice as extraction solvent. The samples were centrifuged (13,500× g for 10 min) and the organic phase was evaporated under a nitrogen stream. The residue was re-suspended in a mixture of H2O and CH3CN (50:50 v/v, 150 µL) and centrifuged (16,000× g for 5 min). […]
as §1, §2

[4] = system: neuronal differentiated N2a cells; assay: MTT assay for evaluation of Fer-Ger toxicity; type: cell-based, mouse; settings: 1 h exposure
Experimental: N2a cells were seeded on T75 flasks and grown in Dulbecco’s Modified Eagle Medium (DMEM) containing Glutamax, supplemented with 100 μg/mL streptomycin, 100 IU/mL penicillin, and 10% fetal bovine serum (FBS) in a humidified 5% CO2 atmosphere at 37 °C. After two passages by trypsinization, cells were seeded at a density of 5 × 10^3 cells/well in 12-well plates with 2 mL of DMEM or at a density of 5 × 10^2 cells/well in 96-well plates with 0.2 mL of DMEM, depending on the study (see below). […]
The potential neurotoxicity of Fer-Ger in N2a differentiated cells, seeded at a density of 5 × 10^2 cells/well in a 96-well plate as reported above, was assayed with the 3-(4,5-dimethylthiazol-2-yl)-2,5-diphenyltetrazolium (MTT) test after incubation for 1 h at 37 °C in a humidified 5% of CO2 atmosphere at 37 °C with increasing concentrations (1, 5, 10, 40, 70, 100 µM) of Fer-Ger dissolved in 0.2 mL of DPBS, supplemented with 0.9 mM CaCl2, 0.5 mM MgCl2, 5.3 mM glucose, and 0.1% BSA to ensure the solubilization of the compound in aqueous media. […] Finally, the absorbance of each well was measured at 570 nm using a microtiter plate reader (Sunrise® Microplate Reader, Tecan Trading AG, Männedorf, Switzerland). The values were expressed as cell vitality percentages with respect to control in the absence of compounds. […]

COc1cc(/C=C/C(=O)OC/C=C(\C)CCC=C(C)C)ccc1O [Fer-Ger, Geranyl ferulate]
hydrolysis / stability [1]: total absence of hydrolysis processes
hydrolysis rate in the presence of unloaded SLMs ([2]; free Fer-Ger in rat liver homogenates with unloaded SLMs): substantially unaffected
prodrug hydrolyzed ([2]; free solubilized prodrug, 10 min incubation in rat liver homogenates, about 30 μM): about 90%
remaining amount of Fer-Ger ([3]; after three hours of incubation in human whole blood, % of overall incubated amount): about 50%
half-life at 30 µM ([3]; heparinized whole blood, human whole blood, 37 °C, 30 µM, pseudo-first order kinetic, read-out: half-life (t1/2) of hydrolysis): 3.23 ± 0.349 h
concentration at which neurotoxic effect starts ([4]; p < 0.05 vs untreated cells): 40 µM
IC50 ([4]; Mus musculus, neuronal differentiated N2a cells, read-out: IC50 value of cell viability): 84.09 ± 0.26 µM
